How the values were obtained:
[1] = test system: MCF-7 ADR cells; experiment: Radiosensitizing activity assay, surviving cells counted by trypan blue staining; format: cell-based, Human; conditions: for radiosensitization: MCF-7 ADR cells (mutant p53, high GST content); for % living cells relative to control without drug treatment: MCF-7ADR
Protocol: (§1) Biological assay for radiosensitizing activity of MDM2 antagonistic compounds: Human tumor cell lines containing wild-type p53 and low levels of GST, such as MCF7 (breast carcinoma) or mutant p53 and a high GST content, such as MCF7 ADR (adriamycin-resistant breast carcinoma) are cultivated in RPMI medium, supplemented with 10% fetal calf serum to a semi-confluent state.
In order to determine the radiosensitizing activity of selected compounds on these cells a minimal toxic dose was determined as 2Gy (gray: J/kg) with a ^137Cesium source at room temperature. […] Cells were trypsinized and seeded in appropriate dilutions into 6 well plates. Surviving cells were trypsinized after 12-13 days and cell number was determined by staining with trypane blue for living/dead cells. The protocol was established according to Khil et al., 1996, Int. J. Rad. Oncol. Biol. Phys. 34, 375-380.

[2] = test system: MCF-7 cells; experiment: as above; format: cell-based, Human
Protocol: as §1
In order to determine the radiosensitizing activity of selected compounds on these cells a minimal toxic dose was determined as 2Gy (gray: J/kg) with a ^137Cesium source at room temperature. Following irradiation of monolayer cells in exponential growth phase with 2 Gy, cells were incubated with various concentrations of the selected compounds for 2-6 h. Cells were trypsinized and seeded in appropriate dilutions into 6 well plates. Surviving cells were trypsinized after 12-13 days and cell number was determined by staining with trypane blue for living/dead cells. The protocol was established according to Khil et al., 1996, Int. J. Rad. Oncol. Biol. Phys. 34, 375-380.

[3] = target: HT29 cytosolic GST (Homo sapiens, UniProt P09211); experiment: Spectrophotometric GST activity analysis in HT29 cell extracts (CDNB/glutathione); format: biochemical; conditions: HT29 cell extract
Protocol: GST catalyzes the conjugation of CDNB with glutathione and results in a CDNB-glutathione product with a strong molar absorption at 340 nm. The change of absorption is monitored for 5 min.
1 x 10^6 cells are collected and washed once with ice-cold phosphate-buffered saline at 1000 rpm for 10 min at 4°C. Cell pellets are resuspended in 200 µl ice-cold phosphate-buffered saline, and are sonicated for 2 min on ice. The sonicate is then centrifuged at 11750 g, 4°C for 15 min in an Eppendorf Centrifuge, and the supernatant is assayed for GST activity.

[4] = target: T1, MDM2 (Homo sapiens, UniProt Q00987); experiment: Interaction of compounds with MDM2; format: binding
T1 construct: 40 µl of mdm2 1-213 (100nM in PBST) were mixed with 40 µl of the sample; made in house
Protocol: BIACORE analysis of the interaction between MDM2 and p53: To quantify the effect of selected compounds on the p53 binding properties of MDM2 protein biosensor measurements using BIACORE 2000 are performed. BIACORE 2000 is a biosensor system delivered from BIACORE AB. The technology of this biosensor is based on the optical phenomenon of surface plasmon resonance (SRP), which detects changes in refractive index of the solution close to the surface of the sensor chip. The refractive index is directly correlated to the mass concentration in the layer and increases when analyte binds to a surface immobilized ligand. Experiments are performed under continuous flow conditions. The SPR response expressed in resonance units (RU) is recorded continuously versus time resulting in a sensorgram. When one interaction is completed, the surface can be regenerated using solutions which remove bound analyte without affecting the activity of the bound ligand. […] After additional 4 minutes rinsing the surface with PBST buffer, a signal was recorded. By comparing the signals of the samples with those of buffer, the inhibitory effects of the samples could be evaluated. […]

[5] = 2 Gy + drug 20 µg/ml, drug incubation time following irradiation 0 hours
[6] = 2 Gy + drug 20 µg/ml, drug incubation time following irradiation 2 hours
[7] = 2 Gy + drug 20 µg/ml, drug incubation time following irradiation 6 hours
[8] = drug alone 20 µg/ml, drug incubation time 0 hours
[9] = drug alone 20 µg/ml, drug incubation time 2 hours
[10] = drug alone 20 µg/ml, drug incubation time 6 hours

Chain of HT29 cytosolic GST (P09211 2-210): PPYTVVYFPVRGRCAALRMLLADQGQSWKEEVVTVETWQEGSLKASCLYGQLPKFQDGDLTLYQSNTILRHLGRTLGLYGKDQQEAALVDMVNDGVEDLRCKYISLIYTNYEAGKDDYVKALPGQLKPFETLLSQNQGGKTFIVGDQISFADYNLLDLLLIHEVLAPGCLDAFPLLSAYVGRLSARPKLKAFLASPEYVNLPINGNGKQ
T1 sequence (Q00987 1-213): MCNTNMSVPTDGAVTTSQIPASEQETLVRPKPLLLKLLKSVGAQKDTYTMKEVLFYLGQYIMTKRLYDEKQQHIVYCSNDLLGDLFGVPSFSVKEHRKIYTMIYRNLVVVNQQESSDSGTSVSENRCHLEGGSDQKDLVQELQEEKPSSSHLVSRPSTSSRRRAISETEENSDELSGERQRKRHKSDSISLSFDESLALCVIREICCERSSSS

Compound	radiosensitization [1]	% living cells relative to control without drug treatment [1, 5]	% living cells relative to control without drug treatment [1, 6]	% living cells relative to control without drug treatment [1, 7]	% living cells relative to control without drug treatment [1, 8]	% living cells relative to control without drug treatment [1, 9]	% living cells relative to control without drug treatment [1, 10]	% living cells relative to control without drug treatment [2, 5]	% living cells relative to control without drug treatment [2, 6]	% living cells relative to control without drug treatment [2, 7]	% living cells relative to control without drug treatment [2, 8]	% living cells relative to control without drug treatment [2, 9]	% living cells relative to control without drug treatment [2, 10]	enhancement of irradiation by the drug (factor) ([2]; drug incubated for 2 hours)	enhancement of irradiation by the drug (factor) ([2]; drug incubated for 6 hours)	further results
O=C(O)COc1ccc(C(=O)/C=C/c2ccc(Cl)c(Cl)c2)cc1 [LSM 83177, 3,4-dichloro-4'-(carboxymethoxy)chalcone]	Radiosensitizing activity independent of the GST content of the target cell can be observed	100%	72.8%	48.8%	100%	87.2%	85.7%	100%	41.8%	17%	100%	64.1%	36.4%	1.5	2	activity at 0.2 µg/mL ([3]; concentration 0,2 µg/ml): 100%; activity at 0.04 µg/mL ([3]; concentration 0,04 µg/ml): 100%; activity at 0.4 µg/mL ([3]; concentration 0,4 µg/ml): 100%; activity at 1 µg/mL ([3]; concentration 1 µg/ml): 100%; activity at 2 µg/mL ([3]; concentration 2 µg/ml): 100%; activity at 5 µg/mL ([3]; concentration 5 µg/ml): 73%; activity at 8 µg/mL ([3]; concentration 8 µg/ml): 46%; activity at 10 µg/mL ([3]; concentration 10 µg/ml): 26%; activity at 20 µg/mL ([3]; concentration 20 µg/ml): 0%; activity at 1.3 µg/mL ([3]; concentration 1,3 µg/ml): 100%; activity at 2.5 µg/mL ([3]; concentration 2,5 µg/ml): 95%
C=C(CC)C(=O)c1ccc(OCC(=O)O)c(Cl)c1Cl [ethacrynic acid, reference compound]	does not mediate any radiosensitization	100%	82.5%	133.6%	100%	88.9%	99%	100%	42.7%	20.5%	100%	52.3%	43.1%	1.5	2	interaction with MDM2 [4]: interaction of ethacrynic acid with MDM2 was surprisingly observed

From EP0947494A1, “Derivatives of phenoxy acetic acid and phenoxymethyltetrazole having antitumor activity” (F. HOFFMANN-LA ROCHE AG, priority 1998, dated 1999)
